In assay [1] the target is T1, progesterone receptor (PR) (Homo sapiens, UniProt P06401).
T1 sequence (P06401 1-933): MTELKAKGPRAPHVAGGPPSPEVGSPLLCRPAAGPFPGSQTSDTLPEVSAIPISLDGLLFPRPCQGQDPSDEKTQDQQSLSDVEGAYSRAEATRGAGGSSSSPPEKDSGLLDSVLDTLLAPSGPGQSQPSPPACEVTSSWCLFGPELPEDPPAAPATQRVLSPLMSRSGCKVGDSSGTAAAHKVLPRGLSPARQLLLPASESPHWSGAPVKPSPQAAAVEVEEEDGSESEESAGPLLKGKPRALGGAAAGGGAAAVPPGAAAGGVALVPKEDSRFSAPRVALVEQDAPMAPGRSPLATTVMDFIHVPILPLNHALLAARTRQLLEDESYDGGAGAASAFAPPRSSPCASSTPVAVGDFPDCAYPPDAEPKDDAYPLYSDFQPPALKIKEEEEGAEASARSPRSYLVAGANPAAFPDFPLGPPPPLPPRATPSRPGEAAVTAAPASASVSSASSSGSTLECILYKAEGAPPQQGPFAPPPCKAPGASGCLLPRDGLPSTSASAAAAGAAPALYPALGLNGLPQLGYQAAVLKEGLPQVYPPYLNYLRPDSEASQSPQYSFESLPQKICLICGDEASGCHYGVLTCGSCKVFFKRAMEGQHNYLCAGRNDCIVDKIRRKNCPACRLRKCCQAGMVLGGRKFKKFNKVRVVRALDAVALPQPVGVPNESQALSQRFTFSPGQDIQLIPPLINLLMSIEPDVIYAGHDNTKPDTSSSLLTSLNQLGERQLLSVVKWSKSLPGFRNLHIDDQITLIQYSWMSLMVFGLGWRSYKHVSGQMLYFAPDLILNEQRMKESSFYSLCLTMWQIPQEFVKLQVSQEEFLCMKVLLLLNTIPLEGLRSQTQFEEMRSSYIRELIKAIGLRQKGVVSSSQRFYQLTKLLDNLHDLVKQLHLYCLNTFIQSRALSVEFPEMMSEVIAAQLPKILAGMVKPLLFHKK
Description: Radioligand binding assay for progesterone receptor (similar protocol).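 Note: radioligand binding measured with cytosol preparations containing the human progesterone receptor.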
Description: Methods for Radiolipand Binding Studies with Human Glucocorticoid and Progesterone Receptor Cytosol

For assay [2], the target named is T2, Human glucocorticoid receptors (Homo sapiens, UniProt P04150).
T2 construct: made in house; host or cells: Sf9 insect cells, recombinant baculovirus (BAC-TO-BAC)
T2 sequence (P04150 1-777): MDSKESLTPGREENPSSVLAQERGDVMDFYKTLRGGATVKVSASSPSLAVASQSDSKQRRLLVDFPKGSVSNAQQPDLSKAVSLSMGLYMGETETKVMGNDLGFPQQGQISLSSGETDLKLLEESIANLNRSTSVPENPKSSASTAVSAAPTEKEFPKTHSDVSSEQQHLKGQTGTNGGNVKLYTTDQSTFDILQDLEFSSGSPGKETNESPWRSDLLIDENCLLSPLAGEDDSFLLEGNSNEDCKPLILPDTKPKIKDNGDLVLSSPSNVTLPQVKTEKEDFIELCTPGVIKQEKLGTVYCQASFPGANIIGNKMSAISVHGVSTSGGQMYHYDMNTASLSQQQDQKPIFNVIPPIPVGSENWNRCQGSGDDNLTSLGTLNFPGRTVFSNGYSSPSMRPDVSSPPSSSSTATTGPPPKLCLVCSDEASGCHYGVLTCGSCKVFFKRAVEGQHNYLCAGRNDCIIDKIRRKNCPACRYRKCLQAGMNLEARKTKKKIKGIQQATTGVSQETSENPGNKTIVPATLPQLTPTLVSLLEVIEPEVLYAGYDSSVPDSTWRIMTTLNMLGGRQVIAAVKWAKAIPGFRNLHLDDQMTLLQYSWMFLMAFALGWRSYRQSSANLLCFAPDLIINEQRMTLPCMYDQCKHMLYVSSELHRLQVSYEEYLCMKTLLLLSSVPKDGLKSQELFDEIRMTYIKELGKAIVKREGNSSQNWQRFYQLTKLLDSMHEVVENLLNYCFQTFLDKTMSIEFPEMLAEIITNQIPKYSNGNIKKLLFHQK
Description: Radioligand filter binding assay, displacement of 3[H]-dexamethasone from hGR. To be noted: read-out: GR Binding (% Inhibition at 1.7 μM). The method in brief:
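Recombinant hGR extract from baculovirus-infected Sf9 cells (final ~1 nM receptor) incubated with ³H-dexamethasone and test compound dilutions in duplicate, EDTA/phosphate pH 8 buffer with MTG, overnight (15-20 h) at +4° C. Bound label collected on PEI-treated GF/B filters and scintillation-counted; IC50 from four-parameter fit of corrected cpm.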

A word on the IC50: it is the concentration needed to halve the response being measured. Higher therefore signals a need for much substance. As usually defined, the inhibition is the change of the read-out against control, counted positive when it falls.

`Cc1c(NS(C)(=O)=O)cccc1N(Cc1ccc(Oc2cccc(OCC(=O)O)c2)cc1)Cc1ccc(Cl)cc1F` [Example 83, (3-{4-[((4-chloro-2-fluorobenzyl){2-methyl-3-[(methylsulfonyl)amino]phenyl}amino)methyl]phenoxy}phenoxy)acetic acid] had an IC50 in assay [1] of 177 nM. For the same compound, in assay [2], the inhibition at 1.7 µM was 98.1%.

`Cc1c(NS(C)(=O)=O)cccc1N(Cc1ccc(Oc2ccc(CCC(=O)O)cc2)cc1)Cc1ccccc1F` [Example 84, 3-(4-{4-[((2-fluorobenzyl){2-methyl-3-[(methylsulfonyl)amino]phenyl}amino)methyl]phenoxy}phenyl)propanoic acid] showed an IC50 in assay [1] of 468 nM. In addition, in assay [2], the inhibition at 1.7 µM is 97.9%.

Regarding `Cc1c(NS(C)(=O)=O)cccc1N(Cc1ccc(F)cc1)Cc1ccc(Oc2ccc(CCC(=O)O)cc2)cc1` [Example 85, 3-(4-{4-[((4-fluorobenzyl){2-methyl-3-[(methylsulfonyl)amino]phenyl}amino)methyl]phenoxy}phenyl)propanoic acid], the half-maximal inhibitory concentration (IC50) in assay [1] came to 351 nM. The inhibition at 1.7 µM in assay [2] worked out at 96.9%.

In the case of `Cc1c(NS(C)(=O)=O)cccc1N(Cc1ccccc1)Cc1ccc(Oc2ccc(CCCCO)cc2)cc1` [Example 101, N-[3-(benzyl{4-[4-(4-hydroxybutyl)phenoxy]benzyl}amino)-2-methylphenyl]methanesulfonamide], the IC50 in assay [1] turned out to be 1030 nM. In assay [2], the inhibition at 1.7 µM worked out at 92.9%.

Take `Cc1c(NS(C)(=O)=O)cccc1N(Cc1ccccc1)Cc1ccc(Oc2ccc(CCC(=O)NCC(=O)O)cc2)cc1` [Example 104, N-[3-(4-{4-[(benzyl{2-methyl-3-[(methylsulfonyl)amino]phenyl}amino)methyl]phenoxy}phenyl)propanoyl]glycine]: the concentration for half-maximal inhibition (IC50) in assay [1] was determined as 583 nM. For the same compound, the inhibition at 1.7 µM in assay [2] was found to be 95.7%.

In assay [1], `Cc1c(NS(C)(=O)=O)cccc1N(Cc1ccccc1)Cc1ccc(Oc2ccc(CCC(=O)NCCC(=O)O)cc2)cc1` [Example 105, N-[3-(4-{4-[(benzyl{2-methyl-3-[(methylsulfonyl)amino]phenyl}amino)methyl]phenoxy}phenyl)propanoyl]-beta-alanine] came in with an IC50 of 685 nM. Moreover, the inhibition at 1.7 µM in assay [2] worked out at 96.2%.

The compound `Cc1c(NS(C)(=O)=O)cccc1N(Cc1ccccc1)Cc1ccc(Oc2ccc(CCC(=O)NCCCC(=O)O)cc2)cc1` [Example 106, 4-{[3-(4-{4-[(benzyl{2-methyl-3-[(methylsulfonyl)amino]phenyl}amino)methyl]phenoxy}phenyl)propanoyl]amino}butanoic acid] came in with an IC50 in assay [1] of 1290 nM. The inhibition at 1.7 µM in assay [2] worked out at 96%.

`Cc1c(NS(C)(=O)=O)cccc1N(Cc1ccc(Oc2cccc(OCC(=O)O)c2)cc1)Cc1ccc(F)cc1F` [Example 110, (3-{4-[((2,4-difluorobenzyl){2-methyl-3-[(methylsulfonyl)amino]phenyl}amino)methyl]phenoxy}phenoxy)acetic acid]: the IC50 in assay [1] is 214 nM. Also, the inhibition at 1.7 µM in assay [2] worked out at 96.5%.

The compound `Cc1c(NS(C)(=O)=O)cccc1N(Cc1ccccc1)Cc1ccc(Oc2cccc(OC(C)C(=O)O)c2)cc1` (centres unmarked) [Example 111, 2-(3-{4-[(benzyl{2-methyl-3-[(methylsulfonyl)amino]phenyl}amino)methyl]phenoxy}phenoxy)propanoic acid] yielded an IC50 in assay [1] of 773 nM. In assay [2], the inhibition at 1.7 µM stood at 95.3%.

Compound `Cc1c(NS(C)(=O)=O)cccc1N(Cc1ccccc1)Cc1ccc(Oc2cccc(OCC(=O)NCCCN3CCCC3=O)c2)cc1` [Example 114, 2-(3-{4-[(benzyl{2-methyl-3-[(methylsulfonyl)amino]phenyl}amino)methyl]phenoxy}phenoxy)-N-[3-(2-oxopyrrolidin-1-yl)propyl]acetamide] displayed an IC50 in assay [1] of 1370 nM. For the same compound, in assay [2], the inhibition at 1.7 µM worked out at 96.7%.

In turn, `COc1ccc(Oc2ccc(CN(Cc3ccc(F)cc3F)c3cccc(NS(C)(=O)=O)c3C)cc2)cc1OC` [Example 141, N-(3-{(2,4-difluorobenzyl)[4-(3,4-dimethoxyphenoxy)benzyl]amino}-2-methylphenyl)methanesulfonamide] had an IC50 in assay [1] of 8050 nM. The inhibition at 1.7 µM in assay [2] stood at 85.4%.

Regarding `CC#CCCOc1ccc(CN(Cc2ccc(F)cc2F)c2cccc(NS(C)(=O)=O)c2C)cc1` [Example 143, N-(3-{(2,4-difluorobenzyl)[4-(pent-3-ynyloxy)benzyl]amino}-2-methylphenyl)methanesulfonamide], the IC50 in assay [1] is > 10000 nM. The inhibition at 1.7 µM in assay [2] was determined as 89.3%.

As for `Cc1c(NS(C)(=O)=O)cccc1N(Cc1ccccc1)Cc1ccc(Oc2ccc(CCC(=O)NCCN3CCOCC3)cc2)cc1` [Example 147, 3-(4-{4-[(benzyl{2-methyl-3-[(metbylsulfonyl)amino]phenyl}amino)methyl]phenoxy}phenyl)-N-(2-morpholin-4-ylethyl)propanamide], the IC50 in assay [1] turned out to be 1330 nM. For the same compound, the inhibition at 1.7 µM in assay [2] turned out to be 93.5%.

Consider `Cc1c(NS(C)(=O)=O)cccc1N(Cc1ccccc1)Cc1ccc(Oc2ccc(CCC(=O)NCCCCCO)cc2)cc1` [Example 149, 3-(4-{4-[(benzyl{2-methyl-3-[(methylsulfonyl)amino]phenyl}amino)methyl]phenoxy}phenyl)-N-(5-hydroxypentyl)propanamide], for which the IC50 in assay [1] stood at 4290 nM. The inhibition at 1.7 µM in assay [2] amounted to 94.7%.

For `Cc1c(NS(C)(=O)=O)cccc1N(Cc1ccccc1)Cc1ccc(Oc2ccc(CCC(=O)NCCCCO)cc2)cc1` [Example 150, 3-(4-{4-[(benzyl{2-methyl-3-[(methylsulfonyl)amino]phenyl}amino)methyl]phenoxy}phenyl)-N-(4-hydroxybutyl)propanamide], in assay [1], the IC50 is 2550 nM. In addition, the inhibition at 1.7 µM in assay [2] worked out at 94.3%.

In assay [1], `Cc1c(NS(C)(=O)=O)cccc1N(Cc1ccccc1)Cc1ccc(Oc2ccc(CCC(=O)NCCCO)cc2)cc1` [Example 151, 3-(4-{4-[(benzyl{2-methyl-3-[(methylsulfonyl)amino]phenyl}amino)methyl]phenoxy}phenyl)-N-(3-hydroxypropyl)propanamide] registered an IC50 of 551 nM. Besides, the inhibition at 1.7 µM in assay [2] worked out at 94.3%.

As to `Cc1c(NS(C)(=O)=O)cccc1N(Cc1ccccc1)Cc1ccc(Oc2ccc(CCC(=O)NCCO)cc2)cc1` [Example 152, 3-(4-{4-[(benzyl{2-methyl-3-[(methylsulfonyl)amino]phenyl}amino)methyl]phenoxy}phenyl)-N-(2-hydroxyethyl)propanamide], in assay [1], the IC50 worked out at 896 nM. For the same compound, in assay [2], the inhibition at 1.7 µM came out at 94.3%.

In assay [1], `Cc1c(NS(C)(=O)=O)cccc1N(Cc1ccccc1)Cc1ccc(Oc2ccc(CCC(=O)NCCCCCCO)cc2)cc1` [Example 153, 3-(4-{4-[(benzyl{2-methyl-3-[(methlsulfonyl)amino]phenyl}amino)methyl]phenoxy}phenyl)-N-(6-hydroxyhexyl)propanamide] showed a 50% inhibitory concentration (IC50) of 255 nM. For the same compound, in assay [2], the inhibition at 1.7 µM is 91.7%.

In assay [1], `Cc1c(NS(C)(=O)=O)cccc1N(Cc1ccc(OCc2ccoc2)cc1)Cc1ccc(F)cc1F` [Example 154, N-(3-{(2,4-difluorobenzyl)[4-(3-furylmethoxy)benzyl]amino}-2-methylphenyl)methanesulfonamide] came in with an IC50 of 921 nM. For the same compound, the inhibition at 1.7 µM in assay [2] stood at 92.3%.
